This test has as its target T1, human GPR52 (Homo sapiens, UniProt Q9Y2T5).
T1 construct: expressed in transfected cells; host or cells: CHO(dhfr-) cells
Nature of the test: Increase of intracellular cAMP concentration in human GPR52-expressing CHO cell (AlphaScreen cAMP assay). The test is classed as cell-based. The following applies: human GPR52-expressing CHO(dhfr-) cells; for activity at 1 µM: CHO, 1µM test compound, 100% = cAMP with 1 µM Reference Example 79, 0% = DMSO, 37°C, 30 min, read-out: GPR52 agonist activity (%); for EC50: concentration of the test compound at which it shows 50% activity, read-out: GPR52 agonist activity EC50. As for the experimental part:
Increase of intracellular cAMP concentration in human GPR52-expressing CHO cell
Using OptiPlate-384 (PerkinElmer Inc.), 1×10^4 human GPR52-expressing CHO(dhfr-) cells were incubated together with various concentration(10^-5µM - 10µm) of a test compound in an assay buffer (30 µL, HBSS (containing Ca^2+ and Mg^2+), 0.5% BSA, 100 µM IBMX, 100 µM Ro20-1724, 5 mM HEPES (pH 7.55)) at 37°C for 30 min. Thereafter, according to the protocol of AlphaScreen CAMP Assay Kit (PerkinElmer Inc.), the intracellular cAMP concentration was measured by EnVision (PerkinElmer Inc.). The GPR52 agonist activity was calculated, assuming the intracellular cAMP concentration in the presence of […] N-(2-hydroxyethyl)-3-[2-[3-(trifluoromethyl)benzyl]-1-benzofuran-4-yl]benzamide (Reference Example 79) to be 100% and assuming the intracellular cAMP concentration when DMSO was added instead of the test compound to be 0%.
On the technique in general: Alpha assays give light when donor and acceptor beads are brought close together.

T1 sequence (Q9Y2T5 whole entry): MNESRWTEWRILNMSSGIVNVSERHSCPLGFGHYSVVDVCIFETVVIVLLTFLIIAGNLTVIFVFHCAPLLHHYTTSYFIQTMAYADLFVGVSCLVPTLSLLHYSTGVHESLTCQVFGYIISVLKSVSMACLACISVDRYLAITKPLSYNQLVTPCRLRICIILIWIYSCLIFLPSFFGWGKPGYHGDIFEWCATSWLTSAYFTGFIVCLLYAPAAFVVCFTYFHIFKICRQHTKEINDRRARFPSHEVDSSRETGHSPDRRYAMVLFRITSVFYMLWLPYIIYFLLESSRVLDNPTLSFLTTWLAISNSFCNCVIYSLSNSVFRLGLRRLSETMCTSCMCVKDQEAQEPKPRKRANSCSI

The term EC50 denotes the concentration needed to bring the measured effect to its halfway point. As for `Cc1nn(-c2cccc3cc(Cc4cc(F)cc(Cl)c4)sc23)c(C)c1C(=O)NCCO` [Example 56, 1-[2-(3-chloro-5-fluorobenzyl)-1-benzothiophen-7-yl]-N-(2-hydroxyethyl)-3,5-dimethyl-1H-pyrazole-4-carboxamide], the activity at 1 µM is 105% and the EC50 stood at 6.9 nM.

Turning to `COCCNC(=O)c1c(C)nn(-c2cccc3cc(Cc4cc(F)cc(Cl)c4)sc23)c1C` [Example 57, 1-[2-(3-chloro-5-fluorobenzyl)-1-benzothiophen-7-yl]-N-(2-methoxyethyl)-3,5-dimethyl-1H-pyrazole-4-carboxamide], the activity at 1 µM was 96%.

For the molecule `Cc1nn(-c2ccc(F)c3cc(Cc4cc(F)cc(Cl)c4)sc23)c(C)c1C(=O)NCC(N)=O` [Example 59, N-(2-amino-2-oxoethyl)-1-[2-(3-chloro-5-fluorobenzyl)-4-fluoro-1-benzothiophen-7-yl]-3,5-dimethyl-1H-pyrazole-4-carboxamide], the activity at 1 µM turned out to be 93%. Take `Cc1nn(-c2ccc(F)c3cc(Cc4cc(F)cc(Cl)c4)sc23)c(C)c1C(=O)NCCO` [Example 60, 1-[2-(3-chloro-5-fluorobenzyl)-4-fluoro-1-benzothiophen-7-yl]-N-(2-hydroxyethyl)-3,5-dimethyl-1H-pyrazole-4-carboxamide]: the activity at 1 µM was determined as 99%.

Consider `Cc1nn(-c2ccc(F)c3cc(Cc4cccc(C(F)(F)F)c4)sc23)c(C)c1C(N)=O` [Example 61, 1-[4-fluoro-2-[3-(trifluoromethyl)benzyl]-1-benzothiophen-7-yl]-3,5-dimethyl-1H-pyrazole-4-carboxamide], for which the activity at 1 µM amounted to 93%. In the case of `Cc1nn(-c2ccc(F)c3cc(Cc4cccc(C(F)(F)F)c4)sc23)c(C)c1C(=O)NCCO` [Example 62, 1-[4-fluoro-2-[3-(trifluoromethyl)benzyl]-1-benzothiophen-7-yl]-N-(2-hydroxyethyl)-3,5-dimethyl-1H-pyrazole-4-carboxamide], the activity at 1 µM was found to be 105%. Take `Cc1nn(-c2cccc3cc(Cc4cccc(C(F)(F)F)c4)sc23)c(CO)c1C(=O)NCC(N)=O` [Example 63, N-(2-amino-2-oxoethyl)-5-(hydroxymethyl)-3-methyl-1-[2-[3-(trifluoromethyl)benzyl]-1-benzothiophen-7-yl]-1H-pyrazole-4-carboxamide]: the activity at 1 µM amounted to 94%. As to `Cc1nn(-c2cccc3cc(Cc4cccc(C(F)(F)F)c4)sc23)c(CO)c1C(N)=O` [Example 64, 5-(hydroxymethyl)-3-methyl-1-[2-[3-(trifluoromethyl)benzyl]-1-benzothiophen-7-yl]-1H-pyrazole-4-carboxamide], the activity at 1 µM was 97% and the half-maximal effective concentration (EC50) was determined as 18 nM.

As to `COCCNC(=O)c1c(C)nn(-c2cccc3cc(Cc4cccc(C(F)(F)F)c4)sc23)c1CO` [Example 66, 5-(hydroxymethyl)-N-(2-methoxyethyl)-3-methyl-1-[2-[3-(trifluoromethyl)benzyl]-1-benzothiophen-7-yl]-1H-pyrazole-4-carboxamide], the activity at 1 µM turned out to be 89%. For the molecule `Cc1c(C(=O)NCCO)c(CO)nn1-c1cccc2cc(Cc3cccc(C(F)(F)F)c3)sc12` [Example 67, N-(2-hydroxyethyl)-3-(hydroxymethyl)-5-methyl-1-[2-[3-(trifluoromethyl)benzyl]-1-benzothiophen-7-yl]-1H-pyrazole-4-carboxamide], the activity at 1 µM turned out to be 83%. For the molecule `Cc1c(C(=O)NCC(N)=O)c(CO)nn1-c1cccc2cc(Cc3cccc(C(F)(F)F)c3)sc12` [Example 68, N-(2-amino-2-oxoethyl)-3-(hydroxymethyl)-5-methyl-1-[2-[3-(trifluoromethyl)benzyl]-1-benzothiophen-7-yl]-1H-pyrazole-4-carboxamide], the activity at 1 µM is 88% and the 50% effective concentration (EC50) stood at 170 nM. Turning to `Cc1c(C(N)=O)c(CO)nn1-c1cccc2cc(Cc3cccc(C(F)(F)F)c3)sc12` [Example 69, 3-(hydroxymethyl)-5-methyl-1-[2-[3-(trifluoromethyl)benzyl]-1-benzothiophen-7-yl]-1H-pyrazole-4-carboxamide], the activity at 1 µM turned out to be 78%. Still for that read-out and setting: then `COCc1c(C(=O)NCCO)c(C)nn1-c1cccc2cc(Cc3cccc(C(F)(F)F)c3)sc12` [Example 70, N-(2-hydroxyethyl)-5-(methoxymethyl)-3-methyl-1-[2-[3-(trifluoromethyl)benzyl]-1-benzothiophen-7-yl]-1H-pyrazole-4-carboxamide], with 91%. For `Cc1nn(-c2ccc(F)c3cc(Cc4cccc(C(F)(F)F)c4)sc23)c(CO)c1C(=O)NCCO` [Example 71, 1-[4-fluoro-2-[3-(trifluoromethyl)benzyl]-1-benzothiophen-7-yl]-N-(2-hydroxyethyl)-5-(hydroxymethyl)-3-methyl-1H-pyrazole-4-carboxamide], the activity at 1 µM is 114% and the concentration giving a half-maximal response (EC50) is 27 nM.

Turning to `Cc1nn(-c2ccc(F)c3cc(Cc4cccc(C(F)(F)F)c4)sc23)c(CO)c1C(=O)NCC(N)=O` [Example 72, N-(2-amino-2-oxoethyl)-1-[4-fluoro-2-[3-(trifluoromethyl)benzyl]-1-benzothiophen-7-yl]-5-(hydroxymethyl)-3-methyl-1H-pyrazole-4-carboxamide], the activity at 1 µM was 96%. With `Cc1nn(-c2ccc(F)c3cc(Cc4cccc(C(F)(F)F)c4)sc23)c(CO)c1C(N)=O` [Example 73, 1-[4-fluoro-2-[3-(trifluoromethyl)benzyl]-1-benzothiophen-7-yl]-5-(hydroxymethyl)-3-methyl-1H-pyrazole-4-carboxamide], the activity at 1 µM is 97%. The same measure, in the same setting: then `Cc1nn(-c2cccc3oc(Cc4cccc(C(F)(F)F)c4)cc23)c(C)c1C(=O)NCC(N)=O` [Example 74, N-(2-amino-2-oxoethyl)-3,5-dimethyl-1-[2-[3-(trifluoromethyl)benzyl]-1-benzofuran-4-yl]-1H-pyrazole-4-carboxamide], with 98%.

As for `Cc1nn(-c2cccc3oc(Cc4cccc(C(F)(F)F)c4)cc23)c(C)c1C(=O)NCCO` [Example 75, N-(2-hydroxyethyl)-3,5-dimethyl-1-[2-[3-(trifluoromethyl)benzyl]-1-benzofuran-4-yl]-1H-pyrazole-4-carboxamide], the activity at 1 µM came out at 101% and the half-maximal effective concentration (EC50) turned out to be 30 nM.

Take `Cc1nn(-c2cccc3oc(Cc4cccc(C(F)(F)F)c4)cc23)c(C)c1C(N)=O` [Example 76, 3,5-dimethyl-1-[2-[3-(trifluoromethyl)benzyl]-1-benzofuran-4-yl]-1H-pyrazole-4-carboxamide]: the activity at 1 µM amounted to 95%.

`Cc1nn(-c2cccc3nn(Cc4cccc(C(F)(F)F)c4)cc23)c(C)c1C(N)=O` [Example 78, 3,5-dimethyl-1-[2-[3-(trifluoromethyl)benzyl]-2H-indazol-4-yl]-1H-pyrazole-4-carboxamide]: the activity at 1 µM stood at 104%. As to `Cc1nn(-c2cccc3nn(Cc4cccc(C(F)(F)F)c4)cc23)c(C)c1C(=O)NCCO` [Example 79, N-(2-hydroxyethyl)-3,5-dimethyl-1-[2-[3-(trifluoromethyl)benzyl]-2H-indazol-4-yl]-1H-pyrazole-4-carboxamide], the activity at 1 µM worked out at 102%. On to `Cc1nn(-c2cccc3nn(Cc4cccc(C(F)(F)F)c4)cc23)c(C)c1C(=O)NCC(N)=O` [Example 80, N-(2-amino-2-oxoethyl)-3,5-dimethyl-1-[2-[3-(trifluoromethyl)benzyl]-2H-indazol-4-yl]-1H-pyrazole-4-carboxamide], for which the activity at 1 µM was found to be 98%.

(Values after patent publication EP2518054A1, “AMIDE COMPOUND” (Takeda Pharmaceutical Company Limited, priority 2009, dated 2011).)
